In patent EP0576227A2, “2'-Deoxy-2',2'-difluoro(2,6,8-substituted) purine nucleosides having anti-viral and anti-cancer activity and intermediates” (ELI LILLY AND COMPANY, priority 1992, dated 1993) one finds inhibition and IC50 data, which are given here for one compound.

Values after ≈ are worked out from the molar mass of the structure shown.

The experiment deals with Hepatitis B Virus. In words: Hepatitis B Virus Test (HBV DNA in supernatant of Hep10A cells, PCR / Southern blot). It is filed as cell-based, human Hepatitis B Virus (HBV). To be noted: 240 h. The text has this: Plasmids were constructed using standard recombinant DNA techniques; see Sambrook, J., et al., Molecular Cloning: A Laboratory Manual, 2nd Edition (1989), Cold Spring Harbor Press, Cold Spring Harbor, NY. Plasmid pTHBV contains a head-to-tail dimer of the human Hepatitis B Virus (HBV) genome, subtype adw, clone into the EcoR I site of pUC9. […] and subcloned into the Sal I site of pTHBV after a two base fill-in reaction with the Klenow fragment of E. coli DNA polymerase I.
HepG2 cells (human hepatoblastoma, ATCC HB 8065) were routinely passaged in growth medium consisting of EARLE'S minimal essential media (Grand Island Biological Company (GIBCO) Bethesda Research Laboratories (BRL), Life Technologies, Inc., Gathersburg, MD.) supplemented with sodium pyruvate, 10 percent fetal bovine serum, 100 units/ml penicillin, and 100 µg/ml streptomycin. Hep10A cells were derived from HepG2 cells. Briefly, HepG2 cells were seeded into 60 mm culture dishes in growth medium, and when approximately 50 percent confluent, were transfected with pTHBVneo using the calcium phosphate precipitation method described by Graham, F.L. and Van der Eb in Virology, 52, p 456-467 (1973). After four hours of post-transfection, the cells were shocked with 10 percent dimethylsulfoxide and 20 percent glucose for 5 minutes, after which they were allowed to recover for 24 horus. The transfected cells were passaged and reseeded in the presence of growth medium containing 800 µg/ml geneticin. The cells were monitored for the appearance of geneticin resistant cells. A genecitin resistant cell line was established, and routinely passaged in growth medium containing 400 µg/ml geneticin. This cell line will be referred to as Hep10A.
Hep10A cells were seeded into 96-well microtiter plates at a density of approximately 50,000 cells per well, allowed to grow to confluence, and maintained at confluence for 2 to 4 days to allow Hepatitus B Virus derivative HBV DNA levels to stabilize; see Sells, M.A., et al., J. Virol., 62, p 2836-2844 (1987) and Korba, B.E., et al., Antiviral Res., 15, p 217-228 (1991). At this time, cells were treated with 2'-deoxy-2'-fluoroarabino-5-iodouridine (FIAU) and the compound of Example 5 for 10 days, with daily changes of media containing fresh drug. FIAU was used as a positive control. On day 10, culture supernatant samples were taken and stored at 4°C until needed. PCR analysis was performed on supernatant samples using appropriate primers to amplify a 477 base pair fragment from the "a" determinant of the surface antigen gene of HBV subtype adw. Following eletrophoresis through agarose gels, the DNA was transferred to nylon membranes (Optiblot™, IBI, New Haven, CT) by capillary action (Southern, 1975) using 1X saline sodium citrate (SSC) (1X SSC=0.15 M NaCl, 0.015 M sodium citrate). After baking in vacuo for 30 minutes, the blots were hybridized for 15 to 18 hours to 1x10⁶ cpm/ml of […] the method of random priming (Feinberg and Vogelstein, 1983). Hybridization was carried out at 42°C using 50 percent N,N-dimethylformamide, 6X saline sodium phosphate ethylenediamine tetraacetic acid (SSPE), 1.0 percent sodium dodyl sulfate (SDS), and 50 µg/ml salmon sperm DNA (1X SSPE=0.18 M NaCl; […] NaH₂PO₄, pH 7.4; 1 mmol ethylene diamine tetraacetic acid (EDTA)). The hybridized blots were washed as follows: twice in 2X SSC/0.1 percent SDS at room temperature for 1 hour, once in 0.1X SSC/0.1 percent SDS at room temperature for 30 minutes, and once in 0.1x SSC/0.1 percent supplemented with SDS at 65°C for 15 minutes. The filters were exposed to x-ray film and quantitated by densitometry.

Setting [1] is: read-out: Percent Inhibition at Specified µg/ml conc.

On to `O=c1[nH]c(=O)n([C@@H]2O[C@H](CO)[C@@H](O)[C@@H]2F)cc1I` [FIAU, 2'-deoxy-2'-fluoroarabino-5-iodouridine, reference compound], for which, under setting [1], the inhibition at 0.1 µg/mL was found to be 10.8%, the inhibition at 1 µg/mL was 35.5%, the inhibition at 10 µg/mL was determined as 65.3% and the inhibition at 100 µg/mL was 81.7%. Besides, the IC50 (read-out: concentration required to inhibit HBV DNA replication by 50 percent) was 5.4 µg/mL (≈ 14.5 µM).
